For the assay, the system named is RAD51 expression in U-2 OS IndDR-GFP cells. Kind of assay: RAD51 expression level by Western blotting. The assay is classed as cell-based, human. The settings on record: 4 µM, 24 h. The method, then: Protein concentrations in the nuclear and whole-cell extracts were determined by Bradford assay (Bio-Rad), and the equivalent protein amounts were subjected to electrophoresis in 12% SDS-Polyacrylamide gels (29:1) in Tris-Glycine-SDS buffer. After gel-electrophoresis, proteins were transferred to PVDF membranes (Amersham, Piscataway, NJ, USA) using Mini Trans-Blot Cell (BioRad, Hercules, CA, USA) at 80V for 40 min. PVDF membranes were washed in TBS and blocked with a blocking buffer (5% nonfat dry milk in TBS-T) for 1 h. Anti-RAD51 rabbit polyclonal antibody (1:1000, GeneTex, GTX100469), anti-FKBP12 monoclonal mouse antibody (1:100, BD Biosciences; Franklin lakes, NJ, USA, 610808) for the detection of ddSceGR, and anti-nucleolin mouse monoclonal antibody (1:1000, Santa Cruz Biotechnology; Dallas, Texas, sc-17826) were applied overnight in a blocking buffer at 4 °C. […] Signal was detected with SuperSignal West Pico Plus chemiluminescent substrate (Thermo Scientific; Waltham, […], USA) with a G:B0X6 imaging system (Syngene; Bangalore, India). Band intensities were quantified with the GeneTools software (Syngene; Bangalore, India).
IndDR-GFP cells. […] 10 µg of protein lysates were loaded and analyzed by SDS-PAGE. […]
In general terms: A western blot detects proteins with antibodies after separation by electrophoresis.

“Also recorded” adds a separate entry of the source.

As to `O=c1nc(/C=C/c2cccnc2)n(Cc2ccccc2)c2ccccc12` [B02-iso], the RAD51 expression level entry is listed as “does not change the RAD51 expression level; also recorded: did not change RAD51 expression level”.

The record behind these values is article PMC8235719, “New RAD51 Inhibitors to Target Homologous Recombination in Human Cells” (Genes, 2021).
